Measurements published in US10487146B2, “Oxidized LDL as a biomarker for neurological complications of pregnancy” (The University of Vermont and State Agricultural College, priority 2012, dated 2019).
Entries after “also recorded” stand apart in the source; their conditions may differ.

Test system: cerebral vein of Galen from NonP rats
Assay: BBB permeability (hydraulic conductivity, Lp) in isolated cerebral veins perfused with human plasma
Design: species or system rat
Method: BBB permeability measurements. The first set of experiments was performed to determine the effects of circulating factors in plasma from EPE and LPE women on the BBB permeability compared to NP women and NonP women. We measured Lp, the critical transport parameter that relates water flux to hydrostatic pressure, in isolated cerebral veins from nonpregnant female rats after perfusing with plasma from the 4 groups of women, as described previously (52). This method of measuring BBB permeability was specifically developed to have a direct measure of water permeability and has been successfully used in several previous studies (13, 52-54).
The vein of Galen was used for all permeability experiments as representation of the BBB because this vein has BBB properties and is where BBB disruption occurs first during acute hypertension (55). […] After this incubation period with plasma, intravascular pressure was increased to 25±0.1 mmHg and the drop in pressure due to transvascular filtration of water out of the vessel in response to hydrostatic pressure was measured for 40 minutes. […] After flux was determined, transvascular filtration per surface area (Jv/S) and Lp were calculated by normalizing flux to the surface area and oncotic pressure of the plasma perfusate that was determined by a commercially available oncometer. […]

Q: `C[n+]1ccc(-c2c3nc(c(-c4cc[n+](C)cc4)c4ccc([n-]4)c(-c4cc[n+](C)cc4)c4nc(c(-c5cc[n+](C)cc5)c5ccc2[n-]5)C=C4)C=C3)cc1.[Cl-].[Cl-].[Cl-].[Cl-].[Cl-].[Fe+3]` [FeTMPyP, Fe(III)tetrakis (1-methyl-4-pyridyl) porphyrin pentachlorideporphyrin pentachloride] was tested. Which “effect on BBB permeability (Lp at 36 minutes) induced by plasma from EPE women” value (EPE plasma plus 50 μM FeTMPyP) did it give?
A: significantly inhibited BBB permeability; also recorded: inhibited the BBB permeability induced by plasma from EPE women

Q: What about the “effect on BBB permeability (Lp) induced by exogenous oxLDL” value (NonP plasma plus 3.5 μg/ml oxLDL and 50 μM FeTMPyP) of the same compound?
A: inhibited the BBB permeability induced by 3.5 μg/ml exogenous oxLDL
